The values that follow are results of earlier work, collected in patent US6943021B2, “Three dimensional vaginal tissue model containing immune cells” (MatTek Corporation, priority 2002, dated 2005).

In the data set the test system is ectocervical-vaginal tissue.

For the substance Nonoxynol-9 [N-9], the ectocervical-vaginal irritation entry (finite segment of the population (Reckart 1992)) is reported as “cause ectocervical-vaginal irritation”. In addition, where the note is “study evaluating N-9 as an HIV microbicide (Stafford et al. 1998)”, the “volunteers who experienced ectocervical-vaginal irritation” value is 25%.
